From ChEMBL document CHEMBL4152218, “Novel hydrazide-hydrazone and amide substituted coumarin derivatives: Synthesis, cytotoxicity screening, microarray, radiolabeling and in vivo pharmacokinetic studies” (Eur J Med Chem, 2018)

Experiments:
PANC-1 [1] = experiment: Induction of apoptosis in human PANC1 cells assessed as increase in caspase-3/7 activity after 24 hrs by Caspase-Glo 3/7 luminescence assay; assay type: functional, cell-based
hTERT-BJ [2] = experiment: Cytotoxicity against hTERT-BJ cells at 50 uM after 48 hrs by resazurin dye-based fluorescence assay relative to control; assay type: cell-based; settings: human
[3] = Selectivity index, ratio of IC50 for hTERT-BJ cells to IC50 for human CCRF-CEM cells; assay type: toxicity; settings: hTERT-BJ cells versus CCRF-CEM cells, read-out: Ratio IC50
hTERT-BJ [4] = experiment: Cytotoxicity against hTERT-BJ cells at 12.50 uM after 48 hrs by resazurin dye-based fluorescence assay relative to control; assay type: cell-based; settings: human, 12.5 µM
CCRF-CEM = experiment: Antiproliferative activity against human CCRF-CEM cells after 48 hrs by resazurin dye-based fluorescence assay; assay type: functional, cell-based
hTERT-BJ [5] = experiment: Cytotoxicity against hTERT-BJ cells after 48 hrs by resazurin dye-based fluorescence assay; assay type: cell-based; settings: Homo sapiens
TERT-RPE1 [6] = experiment: Cytotoxicity against hTERT-RPE1 cells at 6.25 uM after 48 hrs by resazurin dye-based fluorescence assay relative to control; assay type: cell-based; settings: human, tert-rpe1, 48 h
[7] = Selectivity index, ratio of IC50 for hTERT-RPE1 cells to IC50 for human HepG2 cells; assay type: toxicity; settings: hTERT-RPE1 cells versus HepG2 cells, read-out: Ratio IC50
[8] = Selectivity index, ratio of IC50 for hTERT-RPE1 cells to IC50 for human PANC1 cells; assay type: toxicity; settings: hTERT-RPE1 cells versus PANC1 cells, read-out: Ratio IC50
[9] = Selectivity index, ratio of IC50 for hTERT-BJ cells to IC50 for human PANC1 cells; assay type: toxicity; settings: hTERT-BJ cells versus PANC1 cells, read-out: Ratio IC50
TERT-RPE1 [10] = experiment: Cytotoxicity against hTERT-RPE1 cells at 12.50 uM after 48 hrs by resazurin dye-based fluorescence assay relative to control; assay type: cell-based; settings: human, tert-rpe1, 48 h, 12.5 µM
TERT-RPE1 [11] = experiment: Cytotoxicity against hTERT-RPE1 cells after 48 hrs by resazurin dye-based fluorescence assay; assay type: cell-based; settings: Homo sapiens, RPE-1, 48 h
TERT-RPE1 [12] = experiment: Cytotoxicity against hTERT-RPE1 cells at 25 uM after 48 hrs by resazurin dye-based fluorescence assay relative to control; assay type: cell-based; settings: human, tert-rpe1, 48 h
[13] = Selectivity index, ratio of IC50 for hTERT-BJ cells to IC50 for human HepG2 cells; assay type: toxicity; settings: hTERT-BJ cells versus HepG2 cells, read-out: Ratio IC50
hTERT-BJ [14] = experiment: Cytotoxicity against hTERT-BJ cells at 6.25 uM after 48 hrs by resazurin dye-based fluorescence assay relative to control; assay type: cell-based; settings: human
TERT-RPE1 [15] = experiment: Cytotoxicity against hTERT-RPE1 cells at 50 uM after 48 hrs by resazurin dye-based fluorescence assay relative to control; assay type: cell-based; settings: human, tert-rpe1, 48 h
HepG2 [16] = experiment: Induction of apoptosis in human HepG2 cells assessed as increase in caspase-3/7 activity after 24 hrs by Caspase-Glo 3/7 luminescence assay; assay type: functional, cell-based
[17] = Selectivity index, ratio of IC50 for hTERT-RPE1 cells to IC50 for human CCRF-CEM cells; assay type: toxicity; settings: hTERT-RPE1 cells versus CCRF-CEM cells, read-out: Ratio IC50
hTERT-BJ [18] = experiment: Cytotoxicity against hTERT-BJ cells at 25 uM after 48 hrs by resazurin dye-based fluorescence assay relative to control; assay type: cell-based; settings: human
HepG2 [19] = experiment: Antiproliferative activity against human HepG2 cells after 48 hrs by resazurin dye-based fluorescence assay; assay type: functional, cell-based; settings: HepG2, 48 h
PANC-1 [20] = experiment: Antiproliferative activity against human PANC1 cells after 48 hrs by resazurin dye-based fluorescence assay; assay type: functional, cell-based; settings: PANC-1, 48 h

| SMILES | Activity (hTERT-BJ [2]) [%] | selectivity ratio [3] | Activity (hTERT-BJ [4]) [%] | IC50 (CCRF-CEM) [µM] | IC50 (hTERT-BJ [5]) [µM] | Activity (TERT-RPE1 [6]) [%] | selectivity ratio [7] | selectivity ratio [8] | selectivity ratio [9] | Activity (TERT-RPE1 [10]) [%] | IC50 (TERT-RPE1 [11]) [µM] | Activity (TERT-RPE1 [12]) [%] | selectivity ratio [13] | Activity (hTERT-BJ [14]) [%] | Activity (TERT-RPE1 [15]) [%] | selectivity ratio [17] | Activity (hTERT-BJ [18]) [%] | IC50 (HepG2 [19]) [µM] | IC50 (PANC-1 [20]) [µM] | also measured |
| --- | --- | --- | --- | --- | --- | --- | --- | --- | --- | --- | --- | --- | --- | --- | --- | --- | --- | --- | --- | --- |
| O=C(N/N=C/c1cccnc1)c1cc2ccccc2oc1=O | 2.6 | > 5.05 | 0.97 | 9.9 | > 50 | 7.46 | > 3.14 | > 3.27 | > 3.27 | 8.28 | > 50 | 9.89 | > 3.14 | 0.21 | 14.75 | > 5.05 | 5.22 | 15.9 | 15.3 | Activity (PANC-1 [1]): Dose-dependent effect; Activity (HepG2 [16]): Dose-dependent effect |
| CCOc1ccc2nc(Cl)c(/C=N/NC(=O)c3cc4cc(Br)ccc4oc3=O)cc2c1 | 2.67 | > 3.87 | 1.77 | 12.9 | > 50 | 5.41 | > 1.72 | > 2.94 | > 2.94 | 12.4 | > 50 | 13.67 | > 1.72 | 0.53 | 20.15 | > 3.87 | 2.63 | 29 | 17 |  |
| CCOc1ccc(NC(=O)c2cc3cc(Br)ccc3oc2=O)cc1 | 3.3 | > 2.3 | 1.19 | 21.8 | > 50 | 3.04 | > 1.35 | > 2.97 | > 2.97 | 9.63 | > 50 | 13.28 | > 1.35 | 2.3 | 16.45 | > 2.3 | 1.86 | 37 | 16.8 |  |
| Cc1noc(NS(=O)(=O)c2ccc(NC(=O)c3cc4cc([N+](=O)[O-])ccc4oc3=O)cc2)c1C | 10.27 | > 3.49 | 4.43 | 14.3 | > 50 | 1.27 | > 3.34 | > 4.19 | > 4.19 | 2.5 | > 50 | 4.79 | > 3.34 | 2.53 | 4.06 | > 3.49 | 7.18 | 15 | 11.9 |  |
| CCOc1ccc2nc(Cl)c(/C=N/NC(=O)c3cc4ccccc4oc3=O)cc2c1 | 3.64 | > 7.92 | 5.65 | 6.32 | > 50 | 1.13 | > 1.51 | > 1.67 | > 1.67 | 1.23 | > 50 | 9.5 | > 1.51 | 2.77 | 9.97 | > 7.92 | 3.92 | 33.1 | 29.9 |  |
| O=C(N/N=C/c1cccnc1)c1cc2cc([N+](=O)[O-])ccc2oc1=O | 3.99 | > 2.92 | 5.49 | 17.1 | > 50 | 1.1 | > 2.94 | > 4.24 | > 4.24 | 2.22 | > 50 | 10.95 | > 2.94 | 3.59 | 17.11 | > 2.92 | 3.22 | 17 | 11.8 |  |
| Cc1noc(NS(=O)(=O)c2ccc(NC(=O)c3cc4ccccc4oc3=O)cc2)c1C | 26.66 | > 1.88 | 10.4 | 26.6 | > 50 | 9.28 | > 2.09 | > 2.51 | > 2.51 | 13.72 | > 50 | 33.32 | > 2.09 | 8.49 | 47.61 | > 1.88 | 15.88 | 24 | 19.9 |  |
| O=C(N/N=C/c1cccnc1)c1cc2cc(Br)ccc2oc1=O | 2.33 | > 13.5 | 0.78 | 3.71 | > 50 | 6.64 | > 2.63 | > 5.99 | > 5.99 | 12.55 | > 50 | 25.4 | > 2.63 | 0.86 | 34.12 | > 13.5 | 1.7 | 19 | 8.35 |  |
| O=C(N/N=C/c1cc2ccccc2nc1Cl)c1cc2cc([N+](=O)[O-])ccc2oc1=O | 2.73 | > 1.92 | 1.37 | 26 | > 50 | 1.3 | > 2.2 | > 1.29 | > 1.29 | 0.73 | > 50 | 1.96 | > 2.2 | 1.2 | 2.33 | > 1.92 | 1.77 | 22.8 | 38.8 |  |
